Experimental data: the supplement of paper PMC11919725

What was measured:
Jurkat [1] = assay: cytotoxicity relative to DMSO, 18 h (ratio); higher = less cell death (drugs called cytotoxic fall below 1)
Method in brief: (§1)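 Cytotoxicity was measured by IncuCyte fluorescence imaging after confluency correction and normalisation to mean control values. Cells (Jurkat, or primary CD4+/CD8+ T cells that were naive or pre-activated 48 h with CD3/CD28 Dynabeads) received compound at 1 nM–10 µM in log10 steps for 18 h at 37 °C, 5% CO2. Imaging used ×10 magnification, five images per well, taken hourly over 3 h in 96-well plates with 250 nM final IncuCyte Cytotox Dye in 100 µl of suspension.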

Jurkat [2] = assay: metabolic activity relative to DMSO, 18 h (ratio); higher = more viable
Method in brief: (§2)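 Naive or CD3/CD28 Dynabead-activated (48 h) primary CD4+/CD8+ T cells, or Jurkat cells, received compound at 1 nM–10 µM for 18 h. Readout used alamarBlue at 10% v/v final, with fluorescence taken after 3.5 h. Metabolic activity is given relative to mean vehicle control values.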

Jurkat [3] = assay: confluency relative to DMSO, 18 h (ratio); higher = more viable
Method in brief: (§3)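 Naive or CD3/CD28 Dynabead-activated (48 h) primary CD4+/CD8+ T cells, or Jurkat cells, received compound at 1 nM–10 µM for 18 h at 37 °C. Confluency was measured by IncuCyte phase-contrast imaging with the Basic Analyzer and normalised to the mean of the control wells. Imaging used 100 µl of suspension per well in 96-well plates with IncuCyte Cytotox Dye and alamarBlue, at ×10 with five images per well every hour for 3 h.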

[4] = system: Primary T cells CD4+ naive; assay: cytotoxicity relative to DMSO, 18 h (ratio); higher = less cell death (drugs called cytotoxic fall below 1)
Method in brief: as §1

[5] = system: Primary T cells CD4+ naive; assay: metabolic activity relative to DMSO, 18 h (ratio); higher = more viable
Method in brief: as §2

[6] = system: Primary T cells CD4+ naive; assay: confluency relative to DMSO, 18 h (ratio); higher = more viable
Method in brief: as §3

Row | Structure (SMILES) | cytotoxicity (Jurkat [1]; 1 nM) | cytotoxicity (Jurkat [1]; 10 nM) | cytotoxicity (Jurkat [1]; 100 nM) | cytotoxicity (Jurkat [1]; 1000 nM) | cytotoxicity (Jurkat [1]; 10000 nM) | metabolic activity (Jurkat [2]; 1 nM) | metabolic activity (Jurkat [2]; 10 nM) | metabolic activity (Jurkat [2]; 100 nM) | metabolic activity (Jurkat [2]; 1000 nM) | metabolic activity (Jurkat [2]; 10000 nM) | confluency (Jurkat [3]; 1 nM) | confluency (Jurkat [3]; 10 nM) | confluency (Jurkat [3]; 100 nM) | confluency (Jurkat [3]; 1000 nM) | confluency (Jurkat [3]; 10000 nM) | cytotoxicity ([4]; 1 nM) | cytotoxicity ([4]; 10 nM) | cytotoxicity ([4]; 100 nM) | cytotoxicity ([4]; 1000 nM) | cytotoxicity ([4]; 10000 nM) | metabolic activity ([5]; 1 nM) | metabolic activity ([5]; 10 nM) | metabolic activity ([5]; 100 nM) | metabolic activity ([5]; 1000 nM) | metabolic activity ([5]; 10000 nM) | confluency ([6]; 1 nM) | confluency ([6]; 10 nM) | confluency ([6]; 100 nM) | confluency ([6]; 1000 nM) | confluency ([6]; 10000 nM)
1 | NC(=O)C1CCCc2c1[nH]c1ccc(Cl)cc21 (stereo not given) [Selisistat] | 0.974 | 0.979 | 0.932 | 1.09 | 0.974 | 1.06 | 1.02 | 0.995 | 1.09 | 1.05 | 0.962 | 0.984 | 0.973 | 0.992 | 0.992 | – | – | – | – | – | – | – | – | – | – | – | – | – | – | –
2 | Cn1c(=O)n(-c2ccc(C(C)(C)C#N)cc2)c2c3cc(-c4cnc5ccccc5c4)ccc3ncc21 [Dactolisib] | 0.958 | 0.809 | 0.746 | 0.927 | 0.822 | 0.966 | 0.894 | 0.652 | 0.601 | 0.578 | 0.986 | 0.909 | 0.978 | 1.05 | 0.946 | – | – | – | – | – | – | – | – | – | – | – | – | – | – | –
3 | CCCCc1nc2cc(C=CC(=O)NO)ccc2n1CCN(CC)CC [Pracinostat] | 0.918 | 0.836 | 0.799 | 1.02 | 0.852 | 1.09 | 0.964 | 1.03 | 0.737 | 0.621 | 0.945 | 0.95 | 0.862 | 1.04 | 0.908 | 0.794 | 1.19 | 1.38 | 1.03 | 0.897 | 0.982 | 0.951 | 0.917 | 0.946 | 0.877 | 0.744 | 1.13 | 1.29 | 1.05 | 0.873
4 | COc1ncc(-c2ccc3nccc(-c4ccnnc4)c3c2)cc1NS(=O)(=O)c1ccc(F)cc1F [Omipalisib] | 1.04 | 0.823 | 0.728 | 0.735 | 0.923 | 1.1 | 0.966 | 0.621 | 0.524 | 0.563 | 0.98 | 0.797 | 0.785 | 0.904 | 1.12 | – | – | – | – | – | – | – | – | – | – | – | – | – | – | –
5 | O=C1CCC(N2Cc3c(OCc4ccc(CN5CCOCC5)cc4)cccc3C2=O)C(=O)N1 (stereo not given) [Iberdomide] | 0.885 | 0.749 | 0.877 | 0.796 | 0.865 | 0.987 | 0.949 | 1.02 | 1.11 | 1.21 | 0.898 | 0.805 | 0.811 | 0.8 | 0.823 | – | – | – | – | – | – | – | – | – | – | – | – | – | – | –
6 | Cc1sc2c(c1C)C(c1ccc(Cl)cc1)=NC(CC(=O)OC(C)(C)C)c1nnc(C)n1-2 (single isomer, unassigned; (+)) [(+)-JQ-1] | 1.09 | 0.985 | 1.22 | 1.07 | 0.995 | 1.05 | 0.989 | 1.13 | 1.1 | 0.987 | 1.02 | 0.962 | 1.02 | 1.01 | 1.02 | – | – | – | – | – | – | – | – | – | – | – | – | – | – | –
7 | CCC1(O)CC2CN(CCc3c([nH]c4ccccc34)C(C(=O)OC)(c3cc4c(cc3OC)N(C=O)C3C(O)(C(=O)OC)C(OC(C)=O)C5(CC)C=CCN6CCC43C65)C2)C1 (stereo not given) [Vincristine] | 0.824 | 0.698 | 0.662 | 0.611 | 0.585 | 0.536 | 0.402 | 0.366 | 0.394 | 0.412 | 0.98 | 0.875 | 0.82 | 0.781 | 0.762 | – | – | – | – | – | – | – | – | – | – | – | – | – | – | –
8 | COc1ccc(-c2nc(N3CCOCC3)c3sc(CN(C)c4ncc(C(=O)NO)cn4)cc3n2)cn1 [Fimepinostat] | 0.792 | 1.09 | 1.05 | 1.12 | 0.892 | 0.731 | 0.914 | 0.796 | 0.772 | 0.42 | 0.995 | 1.12 | 1.2 | 1.31 | 1.23 | – | – | – | – | – | – | – | – | – | – | – | – | – | – | –
9 | Cc1ncsc1-c1ccc(CNC(=O)C2CC(O)CN2C(=O)C(NC(=O)C2(C#N)CC2)C(C)(C)C)cc1 (stereo not given) [VH298] | 1 | 1.05 | 1.12 | 1.13 | 0.942 | 1.04 | 1.08 | 1.13 | 1.14 | 0.896 | 1.01 | 0.995 | 0.998 | 0.962 | 0.901 | – | – | – | – | – | – | – | – | – | – | – | – | – | – | –
10 | CN1CCC(c2c(O)cc(O)c3c(=O)cc(-c4ccccc4Cl)oc23)C1CO (stereo not given) [Riviciclib] | 0.627 | 0.605 | 1 | 0.783 | 1.04 | 1.04 | 0.872 | 0.754 | 0.6 | 0.242 | 1.07 | 1.04 | 0.985 | 0.866 | 1.03 | – | – | – | – | – | – | – | – | – | – | – | – | – | – | –
11 | COc1cccc2c1c(O)c(C(=O)N(C)c1ccc(C(F)(F)F)cc1)c(=O)n2C [Tasquinimod] | 1 | 0.998 | 0.97 | 1.2 | 1.15 | 1.06 | 0.914 | 0.979 | 1.17 | 1.12 | 0.994 | 0.999 | 0.975 | 1.02 | 1 | – | – | – | – | – | – | – | – | – | – | – | – | – | – | –
